Assay results: ChEMBL document CHEMBL5303573, “Mapping human microbiome drug metabolism by gut bacteria and their genes” (Nature, 2019)

Legend:
Type in all cases: ADME
Set-up in all cases: dose 2 uM
Details in all cases: 2 µM
Regulatory protein = biological target: T1, Regulatory protein (Bacteroides thetaiotaomicron, UniProt Q8A576); test: (§1) The drug is tested on Bacteroides thetaiotaomicron strain: VPI-5482 for biotransformation. The drug concentrations were measured before and after a 12-h incubation by liquid-chromatography-coupled mass spectrometry (LC–MS)
T1 sequence (Q8A576 whole entry): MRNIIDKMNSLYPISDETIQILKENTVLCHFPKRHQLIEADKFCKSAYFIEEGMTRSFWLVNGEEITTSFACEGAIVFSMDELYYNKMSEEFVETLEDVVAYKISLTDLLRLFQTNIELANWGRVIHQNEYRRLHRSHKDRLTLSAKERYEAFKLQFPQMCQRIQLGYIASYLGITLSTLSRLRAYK

[1] = biological target: T2, Acetyl esterase (Acetylxylosidase) (Bacteroides thetaiotaomicron, UniProt Q8ABF8); test: as §1
T2 sequence (Q8ABF8 whole entry): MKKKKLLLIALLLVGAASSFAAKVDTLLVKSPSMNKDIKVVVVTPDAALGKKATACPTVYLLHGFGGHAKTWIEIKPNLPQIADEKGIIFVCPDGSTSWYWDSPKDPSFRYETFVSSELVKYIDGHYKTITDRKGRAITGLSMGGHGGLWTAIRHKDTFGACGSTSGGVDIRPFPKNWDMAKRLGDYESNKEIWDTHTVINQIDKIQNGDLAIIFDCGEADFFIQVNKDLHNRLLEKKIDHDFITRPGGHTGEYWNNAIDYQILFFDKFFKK

Acyltransferase = biological target: T3, Acyltransferase (Bacteroides thetaiotaomicron, UniProt Q8A575); test: as §1
T3 sequence (Q8A575 whole entry): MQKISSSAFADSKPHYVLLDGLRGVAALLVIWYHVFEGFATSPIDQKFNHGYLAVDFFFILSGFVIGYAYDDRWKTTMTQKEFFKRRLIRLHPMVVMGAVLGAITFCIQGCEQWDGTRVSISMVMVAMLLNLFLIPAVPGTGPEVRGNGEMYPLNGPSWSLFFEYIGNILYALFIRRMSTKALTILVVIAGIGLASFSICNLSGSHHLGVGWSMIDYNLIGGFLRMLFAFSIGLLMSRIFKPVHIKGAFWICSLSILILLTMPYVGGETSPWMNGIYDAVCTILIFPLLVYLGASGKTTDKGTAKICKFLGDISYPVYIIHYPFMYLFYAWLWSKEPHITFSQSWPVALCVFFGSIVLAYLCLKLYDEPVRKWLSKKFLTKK

Lipoprotein = biological target: T4, Lipoprotein (Bacteroides thetaiotaomicron, UniProt Q8A343); test: as §1
T4 sequence (Q8A343 whole entry): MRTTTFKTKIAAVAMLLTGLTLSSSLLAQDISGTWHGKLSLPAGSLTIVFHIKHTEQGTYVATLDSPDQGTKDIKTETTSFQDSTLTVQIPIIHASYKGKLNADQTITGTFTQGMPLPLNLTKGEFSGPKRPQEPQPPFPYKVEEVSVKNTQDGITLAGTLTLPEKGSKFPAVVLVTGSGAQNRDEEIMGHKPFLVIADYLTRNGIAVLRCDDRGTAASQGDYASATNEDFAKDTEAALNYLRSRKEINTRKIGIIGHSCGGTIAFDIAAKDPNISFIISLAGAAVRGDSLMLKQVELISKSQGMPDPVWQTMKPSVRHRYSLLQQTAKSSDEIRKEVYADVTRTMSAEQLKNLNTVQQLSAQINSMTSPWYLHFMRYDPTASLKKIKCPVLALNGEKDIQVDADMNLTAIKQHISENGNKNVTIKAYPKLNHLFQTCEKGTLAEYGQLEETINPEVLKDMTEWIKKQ

Nitroreductase = biological target: T5, Nitroreductase (Bacteroides thetaiotaomicron, UniProt Q8A911); test: as §1
T5 sequence (Q8A911 whole entry): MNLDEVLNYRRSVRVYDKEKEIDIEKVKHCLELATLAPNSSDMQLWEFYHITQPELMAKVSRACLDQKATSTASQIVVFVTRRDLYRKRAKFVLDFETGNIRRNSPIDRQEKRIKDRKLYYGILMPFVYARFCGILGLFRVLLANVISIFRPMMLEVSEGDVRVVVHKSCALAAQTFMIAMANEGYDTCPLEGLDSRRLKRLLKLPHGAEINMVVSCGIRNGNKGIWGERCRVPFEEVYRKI

[2] = biological target: T6, Lipolytic enzyme, G-D-S-L family (Bacteroides thetaiotaomicron, UniProt Q8A0C5); test: as §1
T6 sequence (Q8A0C5 whole entry): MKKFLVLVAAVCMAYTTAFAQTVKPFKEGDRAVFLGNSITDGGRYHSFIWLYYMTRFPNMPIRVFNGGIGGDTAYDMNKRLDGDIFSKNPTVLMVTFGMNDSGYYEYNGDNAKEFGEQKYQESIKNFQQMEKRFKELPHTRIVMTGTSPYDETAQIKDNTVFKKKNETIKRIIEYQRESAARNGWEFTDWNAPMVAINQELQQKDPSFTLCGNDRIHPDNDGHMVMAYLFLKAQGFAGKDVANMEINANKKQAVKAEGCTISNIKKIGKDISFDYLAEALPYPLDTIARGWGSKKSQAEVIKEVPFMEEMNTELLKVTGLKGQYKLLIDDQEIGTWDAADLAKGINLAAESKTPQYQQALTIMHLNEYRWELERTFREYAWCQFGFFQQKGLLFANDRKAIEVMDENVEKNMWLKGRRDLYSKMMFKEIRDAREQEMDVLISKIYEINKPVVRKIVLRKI

[3] = biological target: T7, Sialic acid-specific acetylesterase (Bacteroides thetaiotaomicron, UniProt Q8A331); test: as §1
T7 sequence (Q8A331 whole entry): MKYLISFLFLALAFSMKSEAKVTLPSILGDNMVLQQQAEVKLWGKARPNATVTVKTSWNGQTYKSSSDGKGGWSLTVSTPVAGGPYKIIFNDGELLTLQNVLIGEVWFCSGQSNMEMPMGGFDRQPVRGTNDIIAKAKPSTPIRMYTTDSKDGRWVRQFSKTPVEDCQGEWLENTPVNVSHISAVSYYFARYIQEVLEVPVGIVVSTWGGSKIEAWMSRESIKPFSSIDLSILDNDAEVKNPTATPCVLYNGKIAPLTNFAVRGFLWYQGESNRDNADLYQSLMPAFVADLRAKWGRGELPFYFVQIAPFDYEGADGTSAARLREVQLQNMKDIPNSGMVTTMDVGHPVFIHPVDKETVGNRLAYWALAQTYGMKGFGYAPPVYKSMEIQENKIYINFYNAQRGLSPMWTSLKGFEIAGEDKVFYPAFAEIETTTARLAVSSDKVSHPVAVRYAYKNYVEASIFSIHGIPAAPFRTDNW

General stress protein = General stress protein (Bacteroides thetaiotaomicron, UniProt Q8A7U5); test: as §1
Lipase = biological target: T8, Lipase (Bacteroides thetaiotaomicron, UniProt Q8A3J3); test: as §1
T8 sequence (Q8A3J3 whole entry): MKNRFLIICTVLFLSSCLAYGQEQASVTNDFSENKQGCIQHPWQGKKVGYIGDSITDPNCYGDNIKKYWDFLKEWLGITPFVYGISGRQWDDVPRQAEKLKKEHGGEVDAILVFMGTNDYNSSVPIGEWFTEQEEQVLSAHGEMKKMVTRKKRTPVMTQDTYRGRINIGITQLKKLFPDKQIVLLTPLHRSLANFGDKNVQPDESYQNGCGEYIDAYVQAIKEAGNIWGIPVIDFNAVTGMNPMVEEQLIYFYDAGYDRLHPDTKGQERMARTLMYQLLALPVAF

Chain of General stress protein (Q8A7U5 1-138, change not shown): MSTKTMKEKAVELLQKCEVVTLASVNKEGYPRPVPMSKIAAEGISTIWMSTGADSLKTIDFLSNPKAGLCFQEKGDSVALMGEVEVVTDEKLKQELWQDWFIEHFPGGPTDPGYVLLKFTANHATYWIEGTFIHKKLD

Bacterial Biotransformation (Regulatory protein): Compound NOT metabolized
Bacterial Biotransformation [1]: Compound NOT metabolized
Bacterial Biotransformation (Acyltransferase): Compound NOT metabolized
Bacterial Biotransformation (Lipoprotein): Compound NOT metabolized
Bacterial Biotransformation (Nitroreductase): Compound NOT metabolized
Bacterial Biotransformation [2]: Compound NOT metabolized
Bacterial Biotransformation [3]: Compound NOT metabolized
Bacterial Biotransformation (General stress protein): Compound NOT metabolized
Bacterial Biotransformation (Lipase): Compound NOT metabolized
Structure (SMILES): C[C@]12CCC(=O)C=C1[C@@H]1C[C@@H]1[C@H]1[C@@H]3[C@@H]4C[C@@H]4[C@@]4(CCC(=O)O4)[C@@]3(C)CC[C@@H]12 [DROSPIRENONE]
